# Test results from patent US12275719B2, “Small molecule inhibitors of galectin-3” (BRISTOL-MYERS SQUIBB COMPANY, priority 2019, dated 2025).
# Molecular target: His-tagged recombinant human Gal-3 (hGal-3) (Homo sapiens, UniProt P17931)
# Test: Gal-3 HTRF assay (hGal-3 / B-ASF binding inhibition)
# Details: Examples 26 to 29 and 66 to 68; HTRF, 15 nM hGal-3, 15 nM B-ASF
# Protocol: ASSAY BUFFER Composition: 25 mM HEPES, 100 mM NaCl, 0.005% Tween 20, 0.05% BSA prepared in sterile water (all reagents from Sigma).
# Positive Control: 100% DMSO (1 μL)+His-tagged hGal-3 (20 μL)+β-ASF (20 μL)+Anti-His Terbium Antibody (5 μL)+Strep d2 Antibody (5 μL).
# Negative Control: 100% DMSO (1 μL)+His-tagged hGal-3 (20 μL)+Anti His Terbium Antibody (5 μL)+Strep d2 Aantibody (5 μL).
# PROTOCOL: The Gal-3 assays were performed in 384 white Opti plates in three replicates at room temperature with gentle shaking at 250-300 rpm From the original stocks, […] working stock concentrations of His-tagged recombinant human Gal-3 (hGal-3) and that of B-ASF were prepared. From the working stock, 20 μL of hGal-3 (15 nM) and 20 μL B-ASF (15 nM) were added to the plates. In Negative Control, only hGal-3 was added. A concentration range of 50× working stocks were prepared for the compounds in 100% DMSO. Aliquots of 1 μL of the compounds were added to the wells and pre-incubated with 20 μL hGal-3 per well for 30 minutes Then 20 μL B-ASF were added and incubated for another 1 hour. To detect the signal, 5 μL (final conc. of 1.0 nM) terbium labelled Anti-His antibody was added and incubated for 30 min followed by adding 5 μL (final conc. of 20 nM) Streptavidin d2 and incubation for another 1 hour. The assay signal was detected using HTRF screen protocol (Excitation wavelength=340 nm, emission wavelength=615 nm/665 nm) on Envision 2104 Multilabel Reader. Data analysed using Toolset and Curve Master. Results are reported in the experimental section (IC50 in μM).
# His-tagged recombinant human Gal-3 (hGal-3), sequence (P17931 whole entry): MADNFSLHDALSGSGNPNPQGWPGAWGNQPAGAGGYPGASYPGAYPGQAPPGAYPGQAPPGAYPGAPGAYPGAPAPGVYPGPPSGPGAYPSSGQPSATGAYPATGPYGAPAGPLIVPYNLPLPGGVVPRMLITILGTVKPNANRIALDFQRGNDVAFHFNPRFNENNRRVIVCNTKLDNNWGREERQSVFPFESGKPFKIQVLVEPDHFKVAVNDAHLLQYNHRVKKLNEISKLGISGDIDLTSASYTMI
row,IC50 [nM],SMILES
1,750,"Cn1nc([C@@H]2O[C@H](CO)[C@H](O)[C@H](n3cc(-c4ccc(Br)c(F)c4F)nn3)[C@H]2O)n(-c2cc(Cl)ccc2C(F)(F)F)c1=S [Example 66, 5-((2S,3R,4R,5R,6R)-4-(4-(4-bromo-2,3-difluorophenyl)-1H-1,2,3-triazol-1-yl)-3,5-dihydroxy-6-(hydroxymethyl)tetrahydro-2H-pyran-2-yl)-4-(5-chloro-2-(trifluoromethyl)phenyl)-2-methyl-2,4-dihydro-3H-1,2,4-triazole-3-thione]"
2,25,"OC[C@H]1O[C@@H](c2nncn2-c2ccc3ncsc3c2)[C@H](OCC(F)F)[C@@H](n2cc(-c3cc(F)c(Br)c(F)c3)nn2)[C@H]1O [Example 68, (2R,3R,4S,5R,6S)-6-(4-(benzo[d]thiazol-6-yl)-4H-1,2,4-triazol-3-yl)-4-(4-(4-bromo-3,5-difluorophenyl)-1H-1,2,3-triazol-1-yl)-5-(2,2-difluoroethoxy)-2-(hydroxymethyl)tetrahydro-2H-pyran-3-ol]"

# More lines, now with the values behind:
row,SMILES,IC50 [nM]
1,"OC[C@H]1O[C@@H](c2nncn2-c2cc(Cl)ccc2C(F)(F)F)[C@H](OCC(F)F)[C@@H](n2cc(-c3ccc(Br)c(F)c3F)nn2)[C@H]1O [Example 29, (2R,3R,4S,5R,6S)-4-(4-(4-bromo-2,3-difluorophenyl)-1H-1,2,3-triazol-1-yl)-6-(4-(5-chloro-2-(trifluoromethyl)phenyl)-4H-1,2,4-triazol-3-yl)-5-(2,2-difluoroethoxy)-2-(hydroxymethyl)tetrahydro-2H-pyran-3-ol]",11
2,"OC[C@H]1O[C@@H](c2nncn2-c2cc(Cl)ccc2C(F)(F)F)[C@H](O)[C@@H](n2cc(-c3ccc(Br)c(F)c3F)nn2)[C@H]1O [Example 26, (2S,3R,4R,5R,6R)-4-(4-(4-bromo-2,3-difluorophenyl)-1H-1,2,3-triazol-1-yl)-2-(4-(5-chloro-2-(trifluoromethyl)phenyl)-4H-1,2,4-triazol-3-yl)-6-(hydroxymethyl)tetrahydro-2H-pyran-3,5-diol]",10
3,"OC[C@H]1O[C@@H](c2n[nH]c(=S)n2-c2cc(Cl)ccc2C(F)(F)F)[C@H](O)[C@@H](n2cc(-c3ccc(Br)c(F)c3F)nn2)[C@H]1O (single isomer, unassigned) [Example 27]",76

# Same assay, conditions: table of Examples 5 to 25
row,IC50 [nM],SMILES
1,9,Cc1nc([C@@H]2O[C@H](CO)[C@H](O)[C@H](n3cc(-c4ccc(Cl)c(F)c4F)nn3)[C@H]2O)n(-c2ccc3ncsc3c2)n1 [Example 20]
2,12,Cc1nc([C@@H]2O[C@H](CO)[C@H](O)[C@H](n3cc(-c4ccc(Br)c(F)c4F)nn3)[C@H]2O)n(-c2cc(Cl)ncc2C(F)(F)F)n1 [Example 9]
3,14,Cc1nc([C@@H]2O[C@H](CO)[C@H](O)[C@H](n3cc(-c4ccc(Cl)c(F)c4Cl)nn3)[C@H]2O)n(-c2cc(Cl)ccc2C(F)(F)F)n1 [Example 11]
4,18,Cc1nc([C@@H]2O[C@H](CO)[C@H](O)[C@H](n3cc(-c4ccc(Cl)c(C)c4F)nn3)[C@H]2O)n(-c2cc(Cl)ccc2C(F)(F)F)n1 [Example 17]
5,11,Cc1nc([C@@H]2O[C@H](CO)[C@H](O)[C@H](n3cc(-c4ccc(Br)c(F)c4F)nn3)[C@H]2O)n(-c2cc(Cl)ccc2OC(F)(F)F)n1 [Example 10]
6,23,COc1cc(-c2cn([C@H]3[C@@H](O)[C@@H](CO)O[C@@H](c4nc(C)nn4-c4cc(Cl)ccc4C(F)(F)F)[C@@H]3O)nn2)cc(F)c1Br [Example 19]
7,74,Cc1nc([C@@H]2O[C@H](CO)[C@H](O)[C@H](n3cc(-c4ccc(Br)c(F)c4C)nn3)[C@H]2O)n(-c2cc(Cl)ccc2C(F)(F)F)n1 [Example 16]
8,20,Cc1nc([C@@H]2O[C@H](CO)[C@H](O)[C@H](n3cc(-c4ccc(Br)c(F)c4F)nn3)[C@H]2O)n(-c2cc(Cl)ccc2C2CC2)n1 [Example 23]
9,96,Cc1nc([C@@H]2O[C@H](CO)[C@H](O)[C@H](n3cc(-c4ccc(Br)c(Cl)c4F)nn3)[C@H]2O)n(-c2cc(Cl)ccc2C(F)(F)F)n1 [Example 15]

# Same assay, conditions: table of Examples 30 to 65
row,IC50 [nM],SMILES
1,14,OC[C@H]1O[C@@H](c2nncn2-c2cc(Cl)ccc2C(F)(F)F)[C@H](OCC(F)(F)F)[C@@H](n2cc(-c3ccc(Cl)c(F)c3F)nn2)[C@H]1O [Example 60]
2,18,OC[C@H]1O[C@@H](c2nncn2-c2cc(Cl)ccc2C(F)(F)F)[C@H](OCC(F)(F)C(F)F)[C@@H](n2cc(-c3ccc(Br)c(F)c3F)nn2)[C@H]1O [Example 65]
3,11,CO[C@@H]1[C@@H](n2cc(-c3ccc(Cl)c(F)c3F)nn2)[C@@H](O)[C@@H](CO)O[C@H]1c1nncn1-c1cc(Cl)ccc1OC(F)(F)F [Example 56]
4,14,OC[C@H]1O[C@@H](c2nncn2-c2cc(Cl)ccc2OC(F)(F)F)[C@H](O)[C@@H](n2cc(-c3ccc(Cl)c(F)c3F)nn2)[C@H]1O [Example 51]
5,11,OC[C@H]1O[C@@H](c2nncn2-c2cc(Cl)ccc2OC(F)(F)F)[C@H](O)[C@@H](n2cc(-c3ccc(Br)c(F)c3F)nn2)[C@H]1O [Example 38]
6,49,OC[C@H]1O[C@@H](c2nncn2-c2cc(Cl)ccc2OC(F)(F)F)[C@H](OCC(F)(F)C(F)F)[C@@H](n2cc(-c3ccc(Br)c(F)c3F)nn2)[C@H]1O [Example 61]
7,12,OC[C@H]1O[C@@H](c2nncn2-c2cc(Cl)ccc2C(F)(F)F)[C@H](OCC(F)F)[C@@H](n2cc(-c3ccc(Cl)c(F)c3F)nn2)[C@H]1O [Example 54]
8,100,OC[C@H]1O[C@@H](c2nncn2-c2cc(Cl)ccc2C(F)(F)F)[C@H](OCC(F)(F)C(F)F)[C@@H](n2cc(-c3ccc(Br)c(F)c3)nn2)[C@H]1O [Example 64]
9,11,CO[C@@H]1[C@@H](n2cc(-c3c(F)c(F)c(Br)c(F)c3F)nn2)[C@@H](O)[C@@H](CO)O[C@H]1c1nncn1-c1cc(Cl)ccc1OC(F)(F)F [Example 55]
10,9.7,OC[C@H]1O[C@@H](c2nncn2-c2cc(Cl)ccc2C(F)(F)F)[C@H](O)[C@@H](n2cc(-c3ccc(Cl)c(F)c3F)nn2)[C@H]1O [Example 52]
11,14,OC[C@H]1O[C@@H](c2nncn2-c2cc(Cl)ccc2OC(F)(F)F)[C@H](O)[C@@H](n2cc(-c3c(F)c(F)c(Br)c(F)c3F)nn2)[C@H]1O [Example 47]

# Second part, the compound before the results:
row,SMILES,IC50 [nM]
1,CO[C@@H]1[C@@H](n2cc(-c3ccc(Br)c(F)c3F)nn2)[C@@H](O)[C@@H](CO)O[C@H]1c1nncn1-c1cc(Cl)ccc1C(F)(F)F [Example 35],9.3
2,CO[C@@H]1[C@@H](n2cc(-c3ccc(Br)c(F)c3)nn2)[C@@H](O)[C@@H](CO)O[C@H]1c1ncnn1-c1cc(Cl)ccc1C(F)(F)F [Example 30],22
3,OC[C@H]1O[C@@H](c2nncn2-c2cc(Cl)ccc2C(F)(F)F)[C@H](O)[C@@H](n2cc(-c3cc(F)c(Cl)c(Cl)c3)nn2)[C@H]1O [Example 34],20
4,CO[C@@H]1[C@@H](n2cc(-c3cc(F)c(Cl)c(Cl)c3)nn2)[C@@H](O)[C@@H](CO)O[C@H]1c1nncn1-c1cc(Cl)ccc1C(F)(F)F [Example 36],35

# Same assay, conditions: table of Examples 69 to 75
row,IC50 [nM],SMILES
1,130,OC[C@H]1O[C@@H](c2nncn2-c2cc(Cl)cc3cccnc23)[C@H](OCC(F)F)[C@@H](n2cc(-c3cc(F)c(Br)c(F)c3)nn2)[C@H]1O [Example 69]
2,11,OC[C@H]1O[C@@H](c2nncn2-c2ccc3ncsc3c2)[C@H](OCC(F)F)[C@@H](n2cc(-c3ccc(Br)c(F)c3F)nn2)[C@H]1O [Example 70]
3,35,Cc1nc2ccc(-n3cnnc3[C@@H]3O[C@H](CO)[C@H](O)[C@H](n4cc(-c5cc(F)c(Cl)c(Cl)c5)nn4)[C@H]3O)cc2s1 [Example 74]
4,20,Cc1nc2ccc(-n3cnnc3[C@@H]3O[C@H](CO)[C@H](O)[C@H](n4cc(-c5ccc(Br)c(F)c5F)nn4)[C@H]3OCC(F)F)cc2s1 [Example 71]
5,18,Cc1nc2ccc(-n3cnnc3[C@@H]3O[C@H](CO)[C@H](O)[C@H](n4cc(-c5cc(F)c(Cl)c(Cl)c5)nn4)[C@H]3OCC(=O)O)cc2s1 [Example 75]

# Same assay, conditions: text of Examples 1 to 4; HTRF, 15 nM hGal-3, 15 nM B-ASF
row,IC50 [nM],SMILES
1,23,"CNC(=O)CO[C@@H]1[C@@H](n2cc(-c3cc(F)c(Cl)c(F)c3)nn2)[C@@H](O)[C@@H](CO)O[C@H]1c1nc(C)nn1-c1cc(Cl)ccc1C(F)(F)F [Example 4, 2-(((2S,3R,4S,5R,6R)-2-(1-(5-chloro-2-(trifluoromethyl)phenyl)-3-methyl-1H-1,2,4-triazol-5-yl)-4-(4-(4-chloro-3,5-difluorophenyl)-1H-1,2,3-triazol-1-yl)-5-hydroxy-6-(hydroxymethyl)tetrahydro-2H-pyran-3-yl)oxy)-N-methylacetamide]"
2,13,"CO[C@@H]1[C@@H](n2cc(-c3ccc(Br)c(F)c3F)nn2)[C@@H](O)[C@@H](CO)O[C@H]1c1nc(C)nn1-c1ccc2ncsc2c1 [Example 2, (2R,3R,4S,5R,6S)-6-(1-(Benzo[d]thiazol-6-yl)-3-methyl-1H-1,2,4-triazol-5-yl)-4-(4-(4-bromo-2,3-difluorophenyl)-1H-1,2,3-triazol-1-yl)-2-(hydroxymethyl)-5-methoxytetrahydro-2H-pyran-3-ol]"
